In ChEMBL document CHEMBL1136685, “Structure-activity relationship of cyclic peptide penta-c[Asp-His(6)-DPhe(7)-Arg(8)-Trp(9)-Lys]-NH(2) at the human melanocortin-1 and -4 receptors: His(6) substitution” (Bioorg Med Chem Lett, 2003) one finds EC50, cAMP accumulation and IC50 data, which are given here for 21 molecules.

The target of experiment [1] is T1, Melanocyte-stimulating hormone receptor (Homo sapiens, UniProt Q01726). Nature of the experiment: Agonist activity at human melanocortin receptor (hMC1R). The experiment is classed as functional.
Target sequence in this assay (Q01726 whole entry): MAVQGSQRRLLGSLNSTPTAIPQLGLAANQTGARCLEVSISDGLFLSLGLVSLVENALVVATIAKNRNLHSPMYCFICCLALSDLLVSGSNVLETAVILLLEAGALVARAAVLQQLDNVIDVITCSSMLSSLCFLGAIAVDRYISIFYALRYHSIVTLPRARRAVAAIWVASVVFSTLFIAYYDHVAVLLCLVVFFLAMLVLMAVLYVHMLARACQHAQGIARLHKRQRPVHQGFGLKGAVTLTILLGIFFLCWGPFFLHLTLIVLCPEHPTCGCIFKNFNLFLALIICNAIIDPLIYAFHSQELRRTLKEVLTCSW
The target in experiment [2] is T2, Melanocortin receptor 4 (Homo sapiens, UniProt P32245). Nature of the experiment: Agonist activity at human melanocortin receptor (hMC4R). Format: functional.
The target of experiment [3] is T1, Melanocyte-stimulating hormone receptor. Nature of the experiment: Agonistic activity against human melanocortin receptor (hMC1R) for cAMP accumulation at a concentration of 50 uM. The experiment is classed as functional. Background: Changes in cAMP serve as a functional read-out for many G protein-coupled receptors.
Target sequence in this assay (Q01726 whole entry, looked up): as the sequence (Q01726 whole entry) above
Experiment [4] has as its target T2, Melanocortin receptor 4. Nature of the experiment: Agonistic activity against human melanocortin receptor (hMC4R) for cAMP accumulation. Format: functional.
Experiment [5] addresses T1, Melanocyte-stimulating hormone receptor. Nature of the experiment: Binding affinity towards human melanocortin receptor (hMC1R) using NDP-MSH as radioligand.
Target sequence in this assay (Q01726 whole entry): as above
The target of experiment [6] is T2, Melanocortin receptor 4. Nature of the experiment: Binding affinity towards human melanocortin receptor (hMC4R) using NDP-MSH as radioligand.
Another experiment has as its target Melanocortin receptor 3 (Homo sapiens, UniProt P41968). Nature of the experiment: Agonistic activity against human melanocortin receptor (hMC3R) for cAMP accumulation at a concentration of 50 uM. Format: functional.
A further experiment addresses Melanocortin receptor 5 (Homo sapiens, UniProt P33032). Nature of the experiment: Agonistic activity against human melanocortin receptor (hMC5R) for cAMP accumulation at a concentration of 50 uM. The experiment is classed as functional.

Chain of Melanocortin receptor 3 (P41968 whole entry): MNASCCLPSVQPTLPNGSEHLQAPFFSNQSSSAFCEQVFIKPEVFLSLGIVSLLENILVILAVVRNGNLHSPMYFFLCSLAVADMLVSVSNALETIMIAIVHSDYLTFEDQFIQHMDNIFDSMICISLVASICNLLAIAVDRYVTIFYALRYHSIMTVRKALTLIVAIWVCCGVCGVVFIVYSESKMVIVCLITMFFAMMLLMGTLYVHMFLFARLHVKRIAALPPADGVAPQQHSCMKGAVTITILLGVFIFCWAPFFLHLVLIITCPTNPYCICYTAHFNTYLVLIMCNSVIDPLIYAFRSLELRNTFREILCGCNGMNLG
T2 sequence (P32245 whole entry): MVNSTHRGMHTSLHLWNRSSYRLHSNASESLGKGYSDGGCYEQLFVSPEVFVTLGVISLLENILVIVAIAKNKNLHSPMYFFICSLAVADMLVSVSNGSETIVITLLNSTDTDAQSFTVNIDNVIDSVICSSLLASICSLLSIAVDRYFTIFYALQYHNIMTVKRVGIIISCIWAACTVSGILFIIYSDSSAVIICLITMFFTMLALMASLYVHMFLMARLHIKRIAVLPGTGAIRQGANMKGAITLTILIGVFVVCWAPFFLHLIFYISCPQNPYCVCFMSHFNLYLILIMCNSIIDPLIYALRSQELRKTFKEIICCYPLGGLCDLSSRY
Chain of Melanocortin receptor 5 (P33032 whole entry): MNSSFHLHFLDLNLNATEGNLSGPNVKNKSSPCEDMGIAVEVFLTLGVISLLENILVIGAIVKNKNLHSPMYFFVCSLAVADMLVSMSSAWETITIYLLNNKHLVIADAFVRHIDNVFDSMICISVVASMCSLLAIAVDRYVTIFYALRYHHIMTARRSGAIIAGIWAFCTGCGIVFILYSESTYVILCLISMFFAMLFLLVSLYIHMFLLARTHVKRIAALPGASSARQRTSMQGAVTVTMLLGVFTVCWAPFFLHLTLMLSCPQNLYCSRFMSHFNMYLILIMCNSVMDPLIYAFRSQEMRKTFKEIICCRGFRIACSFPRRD

As usually defined, the EC50 is the concentration needed to bring the measured effect to its halfway point. As to `CCCCC(=O)N[C@H]1CC(=O)NCCCC[C@@H](C(N)=O)NC(=O)[C@H](Cc2c[nH]c3ccccc23)NC(=O)[C@H](CCCN=C(N)N)NC(=O)[C@@H](Cc2ccccc2)NC(=O)[C@@]2(CCc3c(cccc3OC)C2)NC1=O` (mixture of isomers), the EC50 in experiment [1] is 735 nM; on Melanocortin receptor 4 [2] it was 5 nM.

`CCCCC(=O)N[C@H]1CC(=O)NCCCC[C@@H](C(N)=O)NC(=O)[C@H](Cc2c[nH]c3ccccc23)NC(=O)[C@H](CCCN=C(N)N)NC(=O)[C@@H](Cc2ccccc2)NC(=O)[C@@]2(CCc3c(C)cccc3C2)NC1=O` (mixture of isomers): the cAMP accumulation in experiment [3] amounted to 80%. Further, the EC50 on Melanocortin receptor 4 [2] came out at 25 nM.

With `CCCCC(=O)N[C@H]1CC(=O)NCCCC[C@@H](C(N)=O)NC(=O)[C@H](Cc2c[nH]c3ccccc23)NC(=O)[C@H](CCCN=C(N)N)NC(=O)[C@@H](Cc2ccccc2)NC(=O)[C@@]2(CCc3ccccc3C2)NC1=O` (mixture of isomers), the EC50 in experiment [1] worked out at 900 nM; on Melanocortin receptor 4 [2], 65 nM.

Turning to `CCCCC(=O)N[C@H]1CC(=O)NCCCC[C@@H](C(N)=O)NC(=O)[C@H](Cc2c[nH]c3ccccc23)NC(=O)[C@H](CCCNC(=N)N)NC(=O)[C@@H](Cc2ccccc2)NC(=O)C2(CCc3c(cccc3C(C)C)C2)NC1=O` (mixture of isomers), the EC50 in experiment [1] amounted to 480 nM; at Melanocortin receptor 4 [2], 7 nM.

With `CCCCC(=O)N[C@H]1CC(=O)NCCCC[C@@H](C(N)=O)NC(=O)[C@H](Cc2c[nH]c3ccccc23)NC(=O)[C@H](CCCN=C(N)N)NC(=O)[C@@H](Cc2ccccc2)NC(=O)C2(CCc3c(cccc3N(C)C)C2)NC1=O` (mixture of isomers), the results for the EC50 (in experiment [1]; on Melanocortin receptor 4 [2]) were 480 nM and 45 nM, respectively.

Turning to `CCCCC(=O)N[C@H]1CC(=O)NCCCC[C@@H](C(N)=O)NC(=O)[C@H](Cc2c[nH]c3ccccc23)NC(=O)[C@H](CCCNC(=N)N)NC(=O)[C@@H](Cc2ccccc2)NC(=O)C2(CCc3c(cccc3OCC)C2)NC1=O` (mixture of isomers), the results for the EC50 (in experiment [1]; on Melanocortin receptor 4 [2]) were 1270 nM and 35 nM, respectively.

On to `CCCCC(=O)N[C@@H]1CC(=O)NCCCC[C@@H](C(N)=O)NC(=O)[C@H](Cc2c[nH]c3ccccc23)NC(=O)[C@@H](CCCN=C(N)N)NC(=O)[C@H](Cc2ccccc2)NC(=O)C2(CCc3c(Cl)cccc3C2)NC1=O` (mixture of isomers), for which, in experiment [3], the cAMP accumulation came out at 30%.

Molecule `CCCCC(=O)N[C@@H]1CC(=O)NCCCC[C@@H](C(N)=O)NC(=O)[C@H](Cc2c[nH]c3ccccc23)NC(=O)[C@@H](CCCN=C(N)N)NC(=O)[C@H](Cc2ccccc2)NC(=O)C2(CCc3cc(Br)ccc3C2)NC1=O` (mixture of isomers) returned a cAMP accumulation in experiment [3] of 60%.

As for `CCCCC(=O)N[C@@H]1CC(=O)NCCCC[C@@H](C(N)=O)NC(=O)[C@H](Cc2c[nH]c3ccccc23)NC(=O)[C@@H](CCCN=C(N)N)NC(=O)[C@H](Cc2ccccc2)NC(=O)C2(CCc3cc(Cl)ccc3C2)NC1=O` (mixture of isomers), the cAMP accumulation in experiment [3] came to 50%.

`CCCCC(=O)N[C@@H]1CC(=O)NCCCC[C@@H](C(N)=O)NC(=O)[C@H](Cc2c[nH]c3ccccc23)NC(=O)[C@@H](CCCN=C(N)N)NC(=O)[C@H](Cc2ccccc2)NC(=O)C2(CCc3cccc(Br)c3C2)NC1=O` (mixture of isomers) had a cAMP accumulation in experiment [3] of 60%.

By IC50 is commonly meant the concentration that inhibits the measured activity by half. The molecule `CCCCC(=O)N[C@H]1CC(=O)NCCCC[C@@H](C(N)=O)NC(=O)[C@H](Cc2c[nH]c3ccccc23)NC(=O)[C@H](CCCNC(N)=O)NC(=O)[C@@H](Cc2ccccc2)NC(=O)C2(CCc3c(Cl)cccc3C2)NC1=O` (single isomer, unassigned; form 1) registered an EC50 at Melanocortin receptor 4 [4] of 48 nM. Moreover, the IC50 in experiment [5] stood at 13100 nM; at Melanocortin receptor 4 [6] it was 410 nM.

For the molecule `CCCCC(=O)N[C@H]1CC(=O)NCCCC[C@@H](C(N)=O)NC(=O)[C@H](Cc2c[nH]c3ccccc23)NC(=O)[C@H](CCCN=C(N)N)NC(=O)[C@@H](Cc2ccccc2)NC(=O)C2(CCc3c(Cl)cccc3C2)NC1=O` (single isomer, unassigned; form 1), the EC50 on Melanocortin receptor 4 [4] was found to be 4 nM. Besides, the IC50 in experiment [5] turned out to be 5820 nM; on Melanocortin receptor 4 [6] it was 15 nM.

For the molecule `CCCCC(=O)N[C@@H]1CC(=O)NCCCC[C@@H](C(N)=O)NC(=O)[C@H](Cc2c[nH]c3ccccc23)NC(=O)[C@@H](CCCN=C(N)N)NC(=O)[C@H](Cc2ccccc2)NC(=O)C2(CCc3c(Br)cccc3C2)NC1=O` (single isomer, unassigned; form 1), in experiment [3], the cAMP accumulation was 80%.

With `CCCCC(=O)N[C@@H]1CC(=O)NCCCC[C@@H](C(N)=O)NC(=O)[C@H](Cc2c[nH]c3ccccc23)NC(=O)[C@@H](CCCN=C(N)N)NC(=O)[C@H](Cc2ccccc2)NC(=O)C2(CCc3c(Cl)cccc3C2)NC1=O` (single isomer, unassigned; form 1), the figures for the cAMP accumulation (in experiment [3]; at Melanocortin receptor 3; at Melanocortin receptor 5) were 20%, 25% and 75%, respectively.

Regarding `CCCCC(=O)N[C@@H]1CC(=O)NCCCC[C@@H](C(N)=O)NC(=O)[C@H](Cc2c[nH]c3ccccc23)NC(=O)[C@@H](CCCNC(N)=O)NC(=O)[C@H](Cc2ccccc2)NC(=O)C2(CCc3c(Cl)cccc3C2)NC1=O` (single isomer, unassigned; form 1), the cAMP accumulation (in experiment [3]; on Melanocortin receptor 3; on Melanocortin receptor 5) was 0% in each case.

Take `CCCCC(=O)N[C@H]1CC(=O)NCCCC[C@@H](C(N)=O)NC(=O)[C@H](Cc2c[nH]c3ccccc23)NC(=O)[C@H](CCCN=C(N)N)NC(=O)[C@@H](Cc2ccccc2)NC(=O)[C@@H]2c3ccccc3CN2C1=O` (single isomer, unassigned; form 2): the EC50 in experiment [1] was found to be 3 nM; at Melanocortin receptor 4 [2] it was 2 nM.

With `CCCCC(=O)N[C@H]1CC(=O)NCCCC[C@@H](C(N)=O)NC(=O)[C@H](Cc2c[nH]c3ccccc23)NC(=O)[C@H](CCCNC(N)=O)NC(=O)[C@@H](Cc2ccccc2)NC(=O)C2(CCc3c(Cl)cccc3C2)NC1=O` (single isomer, unassigned; form 2), the EC50 at Melanocortin receptor 4 [4] stood at 105 nM. Moreover, the IC50 in experiment [5] worked out at 14800 nM; on Melanocortin receptor 4 [6] it was 675 nM.

Consider `CCCCC(=O)N[C@H]1CC(=O)NCCCC[C@@H](C(N)=O)NC(=O)[C@H](Cc2c[nH]c3ccccc23)NC(=O)[C@H](CCCN=C(N)N)NC(=O)[C@@H](Cc2ccccc2)NC(=O)C2(CCc3c(Cl)cccc3C2)NC1=O` (single isomer, unassigned; form 2), for which the EC50 at Melanocortin receptor 4 [4] worked out at 40 nM.

For the molecule `CCCCC(=O)N[C@@H]1CC(=O)NCCCC[C@@H](C(N)=O)NC(=O)[C@H](Cc2c[nH]c3ccccc23)NC(=O)[C@@H](CCCN=C(N)N)NC(=O)[C@H](Cc2ccccc2)NC(=O)C2(CCc3c(Br)cccc3C2)NC1=O` (single isomer, unassigned; form 2), the cAMP accumulation in experiment [3] was 70%.

Turning to `CCCCC(=O)N[C@@H]1CC(=O)NCCCC[C@@H](C(N)=O)NC(=O)[C@H](Cc2c[nH]c3ccccc23)NC(=O)[C@@H](CCCN=C(N)N)NC(=O)[C@H](Cc2ccccc2)NC(=O)C2(CCc3c(Cl)cccc3C2)NC1=O` (single isomer, unassigned; form 2), the cAMP accumulation in experiment [3] was found to be 60%; on Melanocortin receptor 3, 0%; on Melanocortin receptor 5, 38%.

Regarding `CCCCC(=O)N[C@@H]1CC(=O)NCCCC[C@@H](C(N)=O)NC(=O)[C@H](Cc2c[nH]c3ccccc23)NC(=O)[C@@H](CCCNC(N)=O)NC(=O)[C@H](Cc2ccccc2)NC(=O)C2(CCc3c(Cl)cccc3C2)NC1=O` (single isomer, unassigned; form 2), the cAMP accumulation (in experiment [3]; at Melanocortin receptor 3; at Melanocortin receptor 5) was 0% in each case.
